Measurements published in ChEMBL document CHEMBL6096690, “Synthesis and Biological Evaluation of Peripheral HTR2A Antagonists for Colorectal Cancer” (J Med Chem, 2025).
Active and inactive are the calls of the source. The calls are words filed in the database; no cut-off is given here.

Key:
[1] = system: CCD-18Co; test: Cytotoxicity against human CCD-18Co cells assessed as inhibition of cell proliferation incubated for 24 to 48 hrs by CCK-8 assay; assay type: toxicity, cell-based; conditions: dose lower 1.5 µM, time lower 24 hrs, dose upper 12.5 µM, time upper 48 hrs
[2] = system: SW-620; test: Induction of apoptosis in human SW620 cells assessed as upregulation of acetylated P53 protein expression at 5 to 10 uM incubated for 24 hrs by Western blotting analysis; assay type: functional, cell-based; conditions: dose 5-10 µM
[3] = system: SW-620; test: Antitumor activity against human SW620 cells xenografted in male athymic nude BALB/c mouse assessed as tumor growth inhibition at 10 mg/kg, ip administered once daily relative to control; assay type: functional; conditions: read-out: TGI
[4] = Microsomal stability in human liver microsomes assessed as parent compound remaining measured after 30 mins; assay type: ADME, Microsome; conditions: read-out: Stability
[5] = molecular target: CYP2C19 (Homo sapiens, UniProt P33261); test: Inhibition of CYP2C19 (unknown origin) at 10 uM relative to control; assay type: ADME
CYP2C19, sequence (P33261 whole entry): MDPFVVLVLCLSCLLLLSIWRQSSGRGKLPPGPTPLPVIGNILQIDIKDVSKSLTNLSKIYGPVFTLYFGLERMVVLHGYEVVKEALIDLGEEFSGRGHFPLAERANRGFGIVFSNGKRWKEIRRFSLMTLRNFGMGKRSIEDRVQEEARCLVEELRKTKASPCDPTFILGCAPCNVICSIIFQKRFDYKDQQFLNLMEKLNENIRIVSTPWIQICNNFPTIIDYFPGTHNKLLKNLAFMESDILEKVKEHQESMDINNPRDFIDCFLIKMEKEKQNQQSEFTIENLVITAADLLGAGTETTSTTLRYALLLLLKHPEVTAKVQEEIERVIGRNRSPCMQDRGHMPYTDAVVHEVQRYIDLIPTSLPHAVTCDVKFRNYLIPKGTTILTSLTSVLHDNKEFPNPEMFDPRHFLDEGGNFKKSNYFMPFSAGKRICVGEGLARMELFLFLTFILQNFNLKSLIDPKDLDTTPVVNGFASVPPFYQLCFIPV

[6] = molecular target: 5-hydroxytryptamine receptor 2A (Homo sapiens, UniProt P28223); test: Antagonist activity at 5HTR2A (unknown origin) assessed as inhibition of 5-HTR2A
5-hydroxytryptamine receptor 2A, sequence (P28223 whole entry): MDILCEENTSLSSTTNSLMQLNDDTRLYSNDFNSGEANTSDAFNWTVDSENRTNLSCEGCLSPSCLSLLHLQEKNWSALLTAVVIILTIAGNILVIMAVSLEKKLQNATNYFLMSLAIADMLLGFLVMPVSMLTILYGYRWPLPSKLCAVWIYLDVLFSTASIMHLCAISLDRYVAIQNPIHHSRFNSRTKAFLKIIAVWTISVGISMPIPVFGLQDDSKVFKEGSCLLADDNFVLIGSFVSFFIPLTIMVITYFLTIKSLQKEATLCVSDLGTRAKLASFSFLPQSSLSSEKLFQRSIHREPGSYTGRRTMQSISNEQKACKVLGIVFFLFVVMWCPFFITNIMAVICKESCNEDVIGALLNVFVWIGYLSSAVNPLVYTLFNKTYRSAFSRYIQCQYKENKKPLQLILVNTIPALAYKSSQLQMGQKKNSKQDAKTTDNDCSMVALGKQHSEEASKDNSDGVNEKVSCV

[7] = molecular target: 5-hydroxytryptamine receptor 5A (Homo sapiens) (UniProt P47898); test: Inhibition of 5HTR5A (unknown origin) at 1 uM relative to control
5-hydroxytryptamine receptor 5A (Homo sapiens), sequence (P47898 whole entry): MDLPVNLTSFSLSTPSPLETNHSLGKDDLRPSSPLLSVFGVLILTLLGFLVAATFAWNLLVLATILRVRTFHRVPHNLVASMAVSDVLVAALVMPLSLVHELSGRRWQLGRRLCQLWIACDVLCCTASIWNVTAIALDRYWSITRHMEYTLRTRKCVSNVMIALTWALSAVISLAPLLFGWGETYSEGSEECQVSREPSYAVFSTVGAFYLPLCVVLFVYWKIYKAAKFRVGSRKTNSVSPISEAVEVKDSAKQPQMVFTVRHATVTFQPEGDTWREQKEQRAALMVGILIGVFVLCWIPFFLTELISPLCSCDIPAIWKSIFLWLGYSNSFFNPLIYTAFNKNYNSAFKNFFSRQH

[8] = system: HCT-116; test: Antitumor activity against human HCT-116 cells xenografted in male athymic nude BALB/c mouse assessed as tumor growth inhibition at 10 mg/kg, ip measured after 19 days relative to control; assay type: functional; conditions: HCT-116, 456 h, time 19 day, read-out: TGI
[9] = system: SW-620; test: Antitumor activity against human SW620 cells xenografted in male athymic nude BALB/c mouse assessed as tumor growth inhibition at 50 mg/kg, ip administered once daily relative to control; assay type: functional; conditions: read-out: TGI
[10] = system: HCT-116; test: Antiproliferative activity against human HCT-116 cells assessed as inhibition of cell proliferation at 1.5 to 12.5 uM by CCK-8 assay; assay type: functional, cell-based; conditions: dose 1.5-12.5 µM, time […]
[11] = AUCinfinity in male mouse at 2 mg/kg, iv; assay type: ADME, organism-based; conditions: in vivo
[12] = Clearance in male mouse at 2 mg/kg, iv; assay type: ADME, organism-based; conditions: in vivo
[13] = Volume of distribution at steady state in male mouse at 2 mg/kg, iv; assay type: ADME, organism-based; conditions: in vivo, read-out: Vdss
[14] = system: SW-620; test: Antitumor activity against human SW620 cells xenografted in male athymic nude BALB/c mouse assessed as tumor growth inhibition administered intraperitoneally once daily relative to control; assay type: functional; conditions: dose 10-50 mg/kg, route ip
[15] = system: HCT-116; test: Induction of apoptosis in human HCT-116 cells assessed as upregulation of total P53 protein expression at 5 to 10 uM incubated for 24 hrs by Western blotting analysis; assay type: functional, cell-based; conditions: dose 5-10 µM
[16] = Microsomal stability in mouse liver microsomes assessed as parent compound remaining measured after 30 mins; assay type: ADME, Microsome; conditions: read-out: Stability
[17] = system: SW-620; test: Antiproliferative activity against human SW620 cells assessed as inhibition of cell proliferation incubated for 24 to 48 hrs by CCK-8 assay; assay type: functional, cell-based; conditions: dose 1.5-12.5 µM, time 24-48 hrs
[18] = Drug concentration in male ICR mouse plasma at 10 mg/kg, ip measured after 3 hr; assay type: ADME, organism-based
[19] = Microsomal stability in rat liver microsomes assessed as parent compound remaining measured after 30 mins; assay type: ADME, Microsome; conditions: read-out: Stability
[20] = system: HCT-116; test: Antitumor activity against human HCT-116 cells expressing firefly luciferase xenografted in male athymic nude BALB/c mouse assessed as tumor growth inhibition at 50 mg/kg, ip administered once daily by bioluminescence imaging analysis relative to control; assay type: functional; conditions: read-out: TGI
[21] = system: RKO; test: Antiproliferative activity against human RKO cells assessed as inhibition of cell proliferation at 1.5 to 12.5 uM by CCK-8 assay; assay type: functional, cell-based; conditions: dose 1.5-12.5 µM, time 24-48 hrs
[22] = system: SW-620; test: Induction of cell cycle arrest at sub-G1 phase in human SW620 cells assessed as increase in p21 protein expression at 5 to 10 uM incubated for 24 hrs by Western blotting analysis; assay type: functional, cell-based; conditions: dose 5-10 µM
[23] = system: HCT-116; test: Antitumor activity against human HCT-116 cells xenografted in male athymic nude BALB/c mouse assessed as increase in cleaved caspase 3 expression at 10 mg/kg, ip measured after 19 days by Immunohistochemical analysis; assay type: functional, organism-based; conditions: time 19.0 day
[24] = molecular target: T1, 5-hydroxytryptamine receptor 2C (Homo sapiens) (UniProt P28335); test: Inhibition of 5HTR2C (unknown origin) at 1 uM relative to control
T1 sequence (whole entry): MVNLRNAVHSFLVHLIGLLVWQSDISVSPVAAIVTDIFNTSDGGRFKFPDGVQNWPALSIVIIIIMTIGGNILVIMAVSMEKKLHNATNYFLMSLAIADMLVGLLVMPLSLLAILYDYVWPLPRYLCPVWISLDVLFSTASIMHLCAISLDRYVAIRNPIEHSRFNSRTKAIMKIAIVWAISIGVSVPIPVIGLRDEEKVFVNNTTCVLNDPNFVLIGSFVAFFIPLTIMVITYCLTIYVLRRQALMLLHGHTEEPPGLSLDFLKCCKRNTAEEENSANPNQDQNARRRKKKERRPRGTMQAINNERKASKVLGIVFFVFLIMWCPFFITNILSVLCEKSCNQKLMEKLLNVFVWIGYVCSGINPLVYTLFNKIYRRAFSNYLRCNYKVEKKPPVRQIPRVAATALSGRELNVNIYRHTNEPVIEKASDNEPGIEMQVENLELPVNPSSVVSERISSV

[25] = Drug concentration in male ICR mouse brain at 10 mg/kg, ip measured after 3 hr; assay type: ADME, organism-based; conditions: read-out: Ct
[26] = system: HCT-116; test: Induction of cell cycle arrest in human HCT-116 cells assessed as increase in sub-G1 phase cells incubated for 24 hrs by PI/RNase staining based flow cytometric analysis; assay type: functional; conditions: dose 5-10 µM
[27] = system: SW-620; test: Induction of cell cycle arrest in human SW620 cells assessed as increase in sub-G1 phase cells incubated for 24 hrs by PI/RNase staining based flow cytometric analysis; assay type: functional; conditions: dose 5-10 µM
[28] = system: HCT-116; test: Induction of cell cycle arrest at sub-G1 phase in human HCT-116 cells assessed as increase in p21 protein expression at 5 to 10 uM incubated for 24 hrs by Western blotting analysis; assay type: functional, cell-based; conditions: dose 5-10 µM
[29] = Drug concentration in male ICR mouse brain at 10 mg/kg, ip measured after 1 hr; assay type: ADME, organism-based; conditions: read-out: Ct

remaining at 0.5 h [4]: > 99%
inhibition at 10 µM [5]: 21%
IC50 [6]: 42.8 nM
inhibition [7]: 10%
AUC(0-inf) [11]: 500 ng·h/mL
clearance [12]: 67.7 mL/min/kg
Vd [13]: 83.9 L/kg
remaining at 0.5 h [16]: > 99%
concentration at 3 h [18]: 271 ng/mL
remaining at 0.5 h [19]: 95.3%
inhibition [24]: 44%
concentration at 3 h [25]: < 0.5 ng/g
concentration at 1 h [29]: < 0.5 ng/g
Structure (SMILES): Cl.Cl.O=C(NCc1ccc(OCC(O)CN2CCN(c3noc4cc(F)ccc34)CC2)cc1)N(Cc1ccc(F)cc1)C1CCNCC1 (centres undefined)
Activity [1]: Dose-dependent-effect
Activity [2]: Active
inhibition in vivo at 10 mg/kg [3]: 30.8%
inhibition in vivo at 10 mg/kg [8]: 53.3%
inhibition in vivo at 50 mg/kg [9]: 46.9%
Activity [10]: Time-dependent-effect
Activity [14]: Dose-dependent-effect
Activity [15]: Active
Activity [17]: Dose-dependent-effect
inhibition in vivo at 50 mg/kg [20]: 76.5%
Activity [21]: Time-dependent-effect
Activity [22]: Active
Activity [23]: Active
Activity [26]: Dose-dependent-effect
Activity [27]: Dose-dependent-effect
Activity [28]: Active
